We go through two molecules from article PMC6039436, “Radiobrominated benzimidazole-quinoline derivatives as Platelet-derived growth factor receptor beta (PDGFRβ) imaging probes” (Scientific Reports, 2018).

Each structure is given as a SMILES string.

The test system of data set [1] is RXF393 xenograft. Also noted: method as in PMID 23522977. Particulars: RXF393 xenograft mice; cited from earlier work.
The target of data set [2] is T1, PDGFRβ (BxPC3-luc cells) (Homo sapiens, UniProt P09619).
T1 construct: host or cells: BxPC3-luc cells
Description: Competitive binding assay of [^125I]4 with BxPC3-luc cells. Particulars: displacement of [^125I]4, BxPC3-luc cells, 37 °C, 4 h. On the procedure:
We investigated the competitive binding of [^125I]4 to BxPC3-luc cells with PDGFRβ ligand, 1, 2, and 3.
BxPC3-luc cells in medium containing 10% FBS and antibiotics were seeded on 24-well plates (50,000 cells/wells) and incubated for 24 h in a 5% CO2 incubator at 37 °C. Nine concentrations of displacing nonradiolabeled ligands (1, 2 and 3) (ranging from 1 pM to 1 mM) and [^125I]4 in medium without FBS were incubated at 37 °C for 4 h. After washing the cells twice using 250 µL of ice-cold PBS, the unbound radioligand was removed. The cells were dissolved using 250 µL of 1 M NaOH and wells were washed with 250 µL of 1 M NaOH. The bound radioactivity was determined using a gamma counter.
All data were statisticaly analyzed using GraphPad 5.0 software (La Jolla, CA, USA) and expressed as mean ± standard deviation (SD). Significance for in vitro blocking experiments was determined by a one-way analysis of variance (ANOVA) followed by Dunnett’s post hoc test compared to the control group. Significance in cell viability assays was determined by ANOVA followed by Tukey’s post hoc test. IC50 values for the binding assay were calculated by nonlinear regression. Significant differences in biodistribution experiments between [^77Br]2 and [^77Br]3 groups were determined using unpaired Student’s t-test. Significance for in vivo blocking studies between control and blocking groups were determined by unpaired Student’s t-test. Results were considered statistically significant at p < 0.05.

Data set [3] relates to PDGFRβ overexpressed TR-PCT1 cells. Nature of the data set: Cell viability assay (WST-8 / Cell Counting Kit-8). The data set is classed as cell-based, rat. Particulars: 1–1000 nM, 72 h, 20 ng/mL PDGF-BB, compared with 1. On the procedure:
The binding affinity of 2 and 3 to the ATP-binding site in PDGFRβ was evaluated using PDGFRβ overexpressed TR-PCT1 cells. Cells were treated with 1–1000 nM of synthesized ligands, 1, 2, or 3.
Figure 4 Cell viability after exposure 1, 2, and 3 by WST-8 assay. Data were presented as mean ± SD for three samples. Significance was determined using a one-way ANOVA followed by Tukey’s post hoc test (^*p < 0.01, ^**p < 0.001).
The cell viability assay of brominated compounds, 2 and 3, was evaluated as described previously[24],[27]. Namely, TR-PCT1 cells were seeded on 96-well plates (5 × 10^3 cells/well) and cultured at 33 °C in DMEM medium with 20 ng/mL PDGF-BB and 2% FBS in a 5% CO2 incubator. Cells were treated with each compound for 72 h and cell viability was determined by the Cell Counting Kit-8.
(Tetrazolium dyes change colour on reduction, which living cells bring about.)

T1 sequence (P09619 33-1106): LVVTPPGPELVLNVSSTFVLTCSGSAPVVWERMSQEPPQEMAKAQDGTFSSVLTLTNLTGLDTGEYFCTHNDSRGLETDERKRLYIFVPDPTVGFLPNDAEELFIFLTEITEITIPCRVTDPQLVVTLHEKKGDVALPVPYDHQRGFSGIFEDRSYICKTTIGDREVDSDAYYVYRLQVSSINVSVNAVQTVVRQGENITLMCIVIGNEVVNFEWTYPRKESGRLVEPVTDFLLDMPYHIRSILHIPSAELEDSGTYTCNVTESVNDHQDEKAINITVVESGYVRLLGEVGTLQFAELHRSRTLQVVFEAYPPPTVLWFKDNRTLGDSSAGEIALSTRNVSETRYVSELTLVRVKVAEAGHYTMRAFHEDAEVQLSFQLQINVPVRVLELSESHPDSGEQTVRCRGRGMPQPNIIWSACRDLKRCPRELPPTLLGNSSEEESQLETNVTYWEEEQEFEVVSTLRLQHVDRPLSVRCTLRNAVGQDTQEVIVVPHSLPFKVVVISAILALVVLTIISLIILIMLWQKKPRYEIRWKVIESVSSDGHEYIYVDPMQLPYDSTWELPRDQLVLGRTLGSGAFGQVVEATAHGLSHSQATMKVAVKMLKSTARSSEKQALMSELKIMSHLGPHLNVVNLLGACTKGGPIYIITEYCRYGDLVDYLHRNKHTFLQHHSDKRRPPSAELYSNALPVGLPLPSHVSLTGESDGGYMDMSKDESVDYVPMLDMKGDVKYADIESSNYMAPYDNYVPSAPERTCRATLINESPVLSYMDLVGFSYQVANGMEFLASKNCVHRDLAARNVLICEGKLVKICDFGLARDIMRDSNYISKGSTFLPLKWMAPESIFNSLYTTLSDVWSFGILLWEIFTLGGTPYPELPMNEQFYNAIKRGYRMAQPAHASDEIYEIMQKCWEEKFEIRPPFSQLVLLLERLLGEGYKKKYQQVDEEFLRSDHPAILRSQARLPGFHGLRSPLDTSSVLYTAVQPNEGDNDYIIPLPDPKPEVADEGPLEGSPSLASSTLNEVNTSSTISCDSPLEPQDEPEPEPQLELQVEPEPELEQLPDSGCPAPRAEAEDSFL

For `CNC(=O)c1cc(Oc2ccc(NC(=O)Nc3ccc(Cl)c(C(F)(F)F)c3)cc2)ccn1` [^11C-labeled sorafenib, sorafenib], in data set [1], the Tumor uptake result is given as “about 2.52 ± 0.33 %ID/g”.
For the molecule `COCCOc1ccc2c(c1)ncn2-c1ccc2c(Br)ccc(N3CCC(N)CC3)c2n1` [Compound 2, 1-{5-bromo-2-[5-(2-methoxyethoxy)-1H-benzo[d]imidazol-1-yl]quinolin-8-yl}piperidin-4-amine], the IC50 (usually the concentration that inhibits the measured activity by half) in data set [2] is 56 ± 13 nM. In data set [3], the “Cell viability of TR-PCT1 cells” value is given as “more effective in decreasing the viability of TR-PCT1 cells than 1”.
